Data as given in patent publication US9433621B2, “Substituted pyridine and pyrimidine derivatives and their use in treating viral infections” (Merck Sharp & Dohme Corp., priority 2010, dated 2016).
Read-outs that look alike come from different tables or passages of the source.

Test system: HCV replicon
Assay: Cell-Based HCV Replicon Assay
Conditions: Hepatitis C virus, HCV Replicon assay, Table VI, read-out: EC90
Outline: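 Replicon cells, 5000/well, treated 3 days with 10 serial 2-fold dilutions (top 25 μM to 1 μM) in 0.5% DMSO, 10% FBS. Replicon RNA measured by multiplex Taqman RT-PCR (NS5B amplicon, GAPDH control); EC50/EC90 = concentration giving ΔCT of 1/3.2 over baseline from sigmoid fit.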

Cc1nc(NCC(F)(F)C(F)(F)C(F)(F)F)nc(N[C@@H]2C[C@H](C3(O)CCCC3)[C@@H](O)[C@H]2O)c1-c1nc2c(C)nccc2s1 [Example 5113]
EC90 (EC90 range): 5000 to 25000 nM

Cc1nc(NCC(F)(F)C(F)(F)F)nc(N[C@@H]2C[C@H](C3(O)CCCC3)[C@@H](O)[C@H]2O)c1-c1nc2c(C)nccc2s1 [Example 5114]
EC90 (EC90 range): < 500 nM

Cc1nc(NCC2(O)CCOC2)nc(N[C@@H]2C[C@H](C3(O)CCCC3)[C@@H](O)[C@H]2O)c1-c1nc2c(C)nccc2s1 (stereo partly drawn) [Example 5115]
EC90 (EC90 range): < 500 nM

Cc1nc(NCC(F)(F)F)nc(NC2(CO)CCCC2)c1-c1nc2c(C)nccc2s1 [Example 5116]
EC90 (EC90 range): < 500 nM

Cc1nc(NCc2c(F)cccc2F)nc(NC2(CO)CCCC2)c1-c1nc2c(C)nccc2s1 [Example 5117]
EC90 (EC90 range): < 500 nM

Cc1nc(NCC2(O)CC2)nc(N[C@@H]2C[C@H](CS(=O)(=O)c3cc(F)cc(F)c3)[C@@H](O)[C@H]2O)c1-c1nc2c(C)nccc2s1 [Example 5118]
EC90 (EC90 range): < 500 nM

Cc1nc(NCC2(O)CCCC2)nc(N[C@@H]2C[C@H](CS(=O)(=O)c3cc(F)cc(F)c3)[C@@H](O)[C@H]2O)c1-c1nc2c(C)nccc2s1 [Example 5119]
EC90 (EC90 range): < 500 nM

Cc1nc(NCCC2(O)CCCC2)nc(N[C@@H]2C[C@H](CS(=O)(=O)c3cc(F)cc(F)c3)[C@@H](O)[C@H]2O)c1-c1nc2c(C)nccc2s1 [Example 5120]
EC90 (EC90 range): < 500 nM

Cc1nc(NC2(C3CC3)CC2)nc(NC2(CO)CCCC2)c1-c1nc2c(C)nccc2s1 [Example 5121]
EC90 (EC90 range): < 500 nM

Cc1nc(NC2(C3CC3)CC2)nc(N[C@@H]2C[C@H]([C@@H](O)C(C)C)[C@@H](O)[C@H]2O)c1-c1nc2c(C)nccc2s1 [Example 5122]
EC90 (EC90 range): < 500 nM

COCCNc1nc(C)c(-c2nc3c(C)nccc3s2)c(N[C@@H]2C[C@H]([C@@H](O)C(C)C)[C@@H](O)[C@H]2O)n1 [Example 5123]
EC90 (EC90 range): < 500 nM

Cc1nc(N)nc(NC2(CO)CCCC2)c1-c1nc2c(C3CC3)nccc2s1 [Example 5124]
EC90 (EC90 range): < 500 nM

Cc1nc(N)nc(N[C@@H]2C[C@H]([C@@H](O)C(C)C)[C@@H](O)[C@H]2O)c1-c1nc2c(C)nccc2s1 [Example 5125]
EC90 (EC90 range): < 500 nM

COCCNc1nc(C)c(-c2nc3c(C4CC4)nccc3s2)c(NC2(CO)CCCC2)n1 [Example 5126]
EC90 (EC90 range): < 500 nM

Cc1nc(NCC2(O)CCCC2)nc(NC2(CO)CCCC2)c1-c1nc2c(C3CC3)nccc2s1 [Example 5127]
EC90 (EC90 range): < 500 nM

Cc1nc(N[C@H](C)c2c(F)c(F)c(C)c(F)c2F)nc(NC2(CO)CCCC2)c1-c1nc2c(C3CC3)nccc2s1 [Example 5128]
EC90 (EC90 given as numeric bound): > 1000 nM

Cc1nc(NCC(F)(F)C(F)(F)F)nc(NC2(CO)CCCC2)c1-c1nc2c(C3CC3)nccc2s1 [Example 5129]
EC90 (EC90 range): < 500 nM

Cc1nc(N)nc(NC2(CO)CCCC2)c1-c1nc2c(C)nccc2s1 [Example 5130]
EC90 (EC90 range): < 500 nM

COCCNc1nc(C)c(-c2nc3c(C)nccc3s2)c(NC2(CO)CCCC2)n1 [Example 5131]
EC90 (EC90 range): < 500 nM

Cc1nc(NCC2CC2)nc(NC2(CO)CCCC2)c1-c1nc2c(C)nccc2s1 [Example 5132]
EC90 (EC90 range): < 500 nM

Cc1nc(NCC2(O)CCCC2)nc(NC2(CO)CCCC2)c1-c1nc2c(C)nccc2s1 [Example 5133]
EC90 (EC90 range): < 500 nM

Cc1nc(NCC(F)(F)C(F)(F)F)nc(NC2(CO)CC2)c1-c1nc2c(C)nccc2s1 [Example 5134]
EC90 (EC90 range): < 500 nM

CO[C@@H](CNc1nc(C)c(-c2nc3c(C)nccc3s2)c(N[C@@H]2C[C@H](C(C)(C)O)[C@@H](O)[C@H]2O)n1)c1ccccc1 [Example 5135]
EC90 (EC90 range): < 500 nM

CO[C@H]1CCCC[C@@H]1Nc1nc(C)c(-c2nc3c(C)nccc3s2)c(N[C@@H]2C[C@H](CO)[C@@H](O)[C@H]2O)n1 [Example 5136]
EC90 (EC90 range): < 500 nM

CO[C@H]1CCCC[C@@H]1Nc1nc(C)c(-c2nc3c(C)nccc3s2)c(N[C@@H]2C[C@H](C(C)(C)O)[C@@H](O)[C@H]2O)n1 [Example 5137]
EC90 (EC90 range): 500 to 5000 nM

CO[C@H]1CCCC[C@@H]1Nc1nc(C)c(-c2nc3c(C4CC4)nccc3s2)c(N[C@@H]2C[C@H](CO)[C@@H](O)[C@H]2O)n1 [Example 5138]
EC90 (EC90 range): < 500 nM

CO[C@@H]1CCCC[C@H]1Nc1nc(C)c(-c2nc3c(C)nccc3s2)c(N[C@@H]2C[C@H](CO)[C@@H](O)[C@H]2O)n1 [Example 5139]
EC90 (EC90 range): < 500 nM

CO[C@@H]1CCCC[C@H]1Nc1nc(C)c(-c2nc3c(C)nccc3s2)c(N[C@@H]2C[C@H](C(C)(C)O)[C@@H](O)[C@H]2O)n1 [Example 5140]
EC90 (EC90 range): < 500 nM

CO[C@@H]1CCCC[C@H]1Nc1nc(C)c(-c2nc3c(C4CC4)nccc3s2)c(N[C@@H]2C[C@H](CO)[C@@H](O)[C@H]2O)n1 [Example 5141]
EC90 (EC90 range): < 500 nM

CO[C@@H]1CCC[C@@H]1Nc1nc(C)c(-c2nc3c(C4CC4)nccc3s2)c(N[C@@H]2C[C@H](CO)[C@@H](O)[C@H]2O)n1 [Example 5142]
EC90 (EC90 range): < 500 nM

CO[C@@H]1CCC[C@@H]1Nc1nc(C)c(-c2nc3c(C)nccc3s2)c(N[C@@H]2C[C@H](CO)[C@@H](O)[C@H]2O)n1 [Example 5143]
EC90 (EC90 range): < 500 nM

CO[C@@H]1CCC[C@@H]1Nc1nc(C)c(-c2nc3c(C)nccc3s2)c(N[C@@H]2C[C@H](C(C)(C)O)[C@@H](O)[C@H]2O)n1 [Example 5144]
EC90 (EC90 range): 500 to 5000 nM

CO[C@@H]1CCC[C@@H]1Nc1nc(C)c(-c2nc3c(C)nccc3s2)c(N[C@@H]2C[C@H](C(C)(C)Cl)[C@@H](O)[C@H]2O)n1 [Example 5145]
EC90 (EC90 range): < 500 nM

CO[C@H]1CCC[C@@H]1Nc1nc(C)c(-c2nc3c(C)nccc3s2)c(N[C@@H]2C[C@H](CO)[C@@H](O)[C@H]2O)n1 [Example 5146]
EC90 (EC90 range): < 500 nM

CO[C@H]1CCC[C@@H]1Nc1nc(C)c(-c2nc3c(C4CC4)nccc3s2)c(N[C@@H]2C[C@H](CO)[C@@H](O)[C@H]2O)n1 [Example 5147]
EC90 (EC90 range): < 500 nM

Cc1nc(N[C@@H]2CCCC[C@H]2O)nc(N[C@@H]2C[C@H](CO)[C@@H](O)[C@H]2O)c1-c1nc2c(C)nccc2s1 [Example 5148]
EC90 (EC90 range): < 500 nM

Cc1nc(N[C@H]2CCC[C@H]2O)nc(N[C@@H]2C[C@H](CO)[C@@H](O)[C@H]2O)c1-c1nc2c(C)nccc2s1 [Example 5149]
EC90 (EC90 range): < 500 nM

Cc1nc(N[C@H]2CCC[C@@H]2O)nc(N[C@@H]2C[C@H](CO)[C@@H](O)[C@H]2O)c1-c1nc2c(C)nccc2s1 [Example 5150]
EC90 (EC90 range): < 500 nM

Cc1nc(N)nc(N[C@H]2CCC[C@@H]2O)c1-c1nc2c(C)nccc2s1 [Example 5151]
EC90 (EC90 range): < 500 nM

Cc1nc(NC2(C)CCC2)nc(N[C@@H]2C[C@H](CS(C)(=O)=O)[C@@H](O)[C@H]2O)c1-c1nc2c(C)nccc2s1 [Example 5152]
EC90 (EC90 range): < 500 nM

Cc1nc(NC2(C)CCC2)nc(N[C@@H]2C[C@H](C(C)(C)O)[C@@H](O)[C@H]2O)c1-c1nc2c(C)nccc2s1 [Example 5153]
EC90 (EC90 range): < 500 nM

Cc1nc(NCC(F)(F)F)nc(N[C@H]2CCC[C@@H]2O)c1-c1nc2c(C)nccc2s1 [Example 5154]
EC90 (EC90 range): < 500 nM

COCCNc1nc(C)c(-c2nc3c(C)nccc3s2)c(N[C@H]2CCC[C@@H]2O)n1 [Example 5155]
EC90 (EC90 range): < 500 nM

Cc1nc(NCC2CC2)nc(N[C@H]2CCC[C@@H]2O)c1-c1nc2c(C)nccc2s1 [Example 5156]
EC90 (EC90 range): < 500 nM

Cc1nc(NCC2CC2)nc(N[C@H]2C=C[C@@H](CO)C2)c1-c1nc2c(C)nccc2s1 [Example 5157]
EC90 (EC90 range): < 500 nM

Cc1nc(NCC2(O)CCCC2)nc(N[C@H]2C=C[C@@H](CO)C2)c1-c1nc2c(C)nccc2s1 [Example 5158]
EC90 (EC90 range): < 500 nM

Cc1nc(NCC2(O)CCCC2)nc(N[C@H]2CC[C@@H](CO)C2)c1-c1nc2c(C)nccc2s1 [Example 5159]
EC90 (EC90 range): < 500 nM

Cc1nc(N[C@@H](CO)Cc2ccccc2)nc(N[C@@H]2C[C@H](C(C)(C)O)[C@@H](O)[C@H]2O)c1-c1nc2c(C)nccc2s1 [Example 5160]
EC90 (EC90 range): 500 to 5000 nM

COCCCNc1nc(C)c(-c2nc3c(C)nccc3s2)c(N[C@@H]2C[C@H](C(C)(C)O)[C@@H](O)[C@H]2O)n1 [Example 5161]
EC90 (EC90 range): < 500 nM

Cc1nc(N[C@@H](CO)CC(C)C)nc(N[C@@H]2C[C@H](C(C)(C)O)[C@@H](O)[C@H]2O)c1-c1nc2c(C)nccc2s1 [Example 5162]
EC90 (EC90 range): < 500 nM

Cc1nc(NC(C)CCCC(C)(C)O)nc(N[C@@H]2C[C@H](C(C)(C)O)[C@@H](O)[C@H]2O)c1-c1nc2c(C)nccc2s1 (stereo partly drawn) [Example 5163]
EC90 (EC90 range): < 500 nM

Cc1nc(NCC(F)(F)C(F)(F)C(F)(F)F)nc(N[C@H]2C=C[C@@H](CO)C2)c1-c1nc2c(C)nccc2s1 [Example 5164]
EC90 (EC90 range): < 500 nM

Cc1nc(NCC(F)(F)C(F)(F)F)nc(N[C@H]2C=C[C@@H](CO)C2)c1-c1nc2c(C)nccc2s1 [Example 5165]
EC90 (EC90 range): < 500 nM

Cc1nc(NCC(F)(F)C(F)(F)C(F)(F)F)nc(N[C@H]2CC[C@@H](CO)C2)c1-c1nc2c(C)nccc2s1 [Example 5166]
EC90 (EC90 range): < 500 nM

Cc1nc(N)nc(N[C@H]2C=C[C@@H](CO)C2)c1-c1nc2c(C)nccc2s1 [Example 5167]
EC90 (EC90 range): < 500 nM

Cc1nc(NCC(F)(F)C(F)(F)F)nc(N[C@H]2CC[C@@H](CO)C2)c1-c1nc2c(C)nccc2s1 [Example 5168]
EC90 (EC90 range): < 500 nM

Cc1nc(N[C@H](C)c2c(F)c(F)c(C)c(F)c2F)nc(N[C@H]2C=C[C@@H](CO)C2)c1-c1nc2c(C)nccc2s1 [Example 5169]
EC90 (EC90 range): < 500 nM
